Test results reported in PubChem BioAssay (NCI).
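Values below derive from 48-hour exposures of cells grown in 96-well plates, with endpoints linearly interpolated between the two concentrations bracketing the appropriate inhibition level. TGI: concentration producing complete growth inhibition.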

Experiments:
Experiment in all cases: growth of human tumour cells (NCI), 48 h
786-0 renal = tested on: 786-0 renal
A498 renal = tested on: A498 renal
ACHN renal = tested on: ACHN renal
CCRF-CEM leukemia = tested on: CCRF-CEM leukemia
COLO 205 colon = tested on: COLO 205 colon
DU-145 prostate = tested on: DU-145 prostate
HCC-2998 colon = tested on: HCC-2998 colon
HCT-116 colon = tested on: HCT-116 colon
HCT-15 colon = tested on: HCT-15 colon
HL-60(TB) leukemia = tested on: HL-60(TB) leukemia
HOP-62 NSCLC = tested on: HOP-62 NSCLC
HS 578T breast = tested on: HS 578T breast
HT29 colon = tested on: HT29 colon
IGROV1 ovarian = tested on: IGROV1 ovarian
K-562 leukemia = tested on: K-562 leukemia
KM12 colon = tested on: KM12 colon
LOX IMVI melanoma = tested on: LOX IMVI melanoma
M14 melanoma = tested on: M14 melanoma
MALME-3M melanoma = tested on: MALME-3M melanoma
MCF7 breast = tested on: MCF7 breast
MDA-MB-231 breast = tested on: MDA-MB-231 breast
MDA-MB-435 = tested on: MDA-MB-435
MDA-N = tested on: MDA-N
MOLT-4 leukemia = tested on: MOLT-4 leukemia
NCI-H226 lung = tested on: NCI-H226 lung
NCI-H23 lung = tested on: NCI-H23 lung
NCI-H460 lung = tested on: NCI-H460 lung
NCI-H522 lung = tested on: NCI-H522 lung
NCI/ADR-RES ovarian = tested on: NCI/ADR-RES ovarian
OVCAR-3 ovarian = tested on: OVCAR-3 ovarian
OVCAR-4 ovarian = tested on: OVCAR-4 ovarian
OVCAR-5 ovarian = tested on: OVCAR-5 ovarian
OVCAR-8 ovarian = tested on: OVCAR-8 ovarian
PC-3 prostate = tested on: PC-3 prostate
RPMI-8226 leukemia = tested on: RPMI-8226 leukemia
RXF 393 renal = tested on: RXF 393 renal
SF-268 CNS = tested on: SF-268 CNS
SF-295 CNS = tested on: SF-295 CNS
SF-539 CNS = tested on: SF-539 CNS
SK-MEL-2 melanoma = tested on: SK-MEL-2 melanoma
SK-MEL-28 melanoma = tested on: SK-MEL-28 melanoma
SK-OV-3 ovarian = tested on: SK-OV-3 ovarian
SN12C renal = tested on: SN12C renal
SNB-19 CNS = tested on: SNB-19 CNS
SNB-75 CNS = tested on: SNB-75 CNS
SW-620 colon = tested on: SW-620 colon
T-47D breast = tested on: T-47D breast
TK-10 renal = tested on: TK-10 renal
U251 CNS = tested on: U251 CNS
UACC-257 melanoma = tested on: UACC-257 melanoma
UACC-62 melanoma = tested on: UACC-62 melanoma
UO-31 renal = tested on: UO-31 renal
A549 NSCLC = tested on: A549 NSCLC
CAKI-1 renal = tested on: CAKI-1 renal
HOP-92 NSCLC = tested on: HOP-92 NSCLC
SK-MEL-5 melanoma = tested on: SK-MEL-5 melanoma
SR leukemia = tested on: SR leukemia

Measured: TGI

CC(=O)OC1CC2CCC1(C)C2(C)C (stereo unspecified)
not listed: A549 NSCLC | CAKI-1 renal | HOP-92 NSCLC | SK-MEL-5 melanoma | SR leukemia
> 100 µM: all other assays above

CCP(=O)(CC)C(Cl)(Cl)C(O)C(C)(C)C (stereo unspecified)
not listed: 786-0 renal | HL-60(TB) leukemia | KM12 colon | MALME-3M melanoma | RXF 393 renal | SF-268 CNS | SF-539 CNS | UACC-62 melanoma
> 100 µM: all other assays above
